Data reported in PubChem BioAssay (NCI).
Several values for one entry are separate records, joined by “and”; a condition that tells them apart may be missing. Equal entries are not always repeated.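 Five concentrations, 48 hours, 96-well plates. At the GI50, growth is halved. TGI marks complete inhibition of growth.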

Experiments:
Experiment in all cases: NCI tumour cell line growth inhibition, 48 h
ACHN renal = test system: ACHN renal
CCRF-CEM leukemia = test system: CCRF-CEM leukemia
HOP-92 NSCLC = test system: HOP-92 NSCLC
MDA-MB-231 breast = test system: MDA-MB-231 breast
OVCAR-8 ovarian = test system: OVCAR-8 ovarian
SF-268 CNS = test system: SF-268 CNS
SF-295 CNS = test system: SF-295 CNS
SF-539 CNS = test system: SF-539 CNS
TK-10 renal = test system: TK-10 renal
UACC-62 melanoma = test system: UACC-62 melanoma

| SMILES | GI50 (ACHN renal) | TGI (ACHN renal) | GI50 (CCRF-CEM leukemia) | TGI (CCRF-CEM leukemia) | GI50 (HOP-92 NSCLC) | TGI (HOP-92 NSCLC) | GI50 (MDA-MB-231 breast) | TGI (MDA-MB-231 breast) | GI50 (OVCAR-8 ovarian) | TGI (OVCAR-8 ovarian) | GI50 (SF-268 CNS) | TGI (SF-268 CNS) | GI50 (SF-295 CNS) | TGI (SF-295 CNS) | GI50 (SF-539 CNS) | TGI (SF-539 CNS) | GI50 (TK-10 renal) | TGI (TK-10 renal) | GI50 (UACC-62 melanoma) | TGI (UACC-62 melanoma) |
| --- | --- | --- | --- | --- | --- | --- | --- | --- | --- | --- | --- | --- | --- | --- | --- | --- | --- | --- | --- | --- |
| CC[C@]12C=CCN3CC[C@@]4(c5ccc(OC)cc5N(C)[C@H]4[C@@](O)(C(=O)OC)[C@@H]1OC(=O)CCC[P+](c1ccccc1)(c1ccccc1)c1ccccc1)[C@@H]32 | 5.32 µM and 7.58 µM | 14.5 µM and 20.1 µM | 0.64 µM and 0.609 µM | 5.44 µM and 2.68 µM | 0.0934 µM and 0.241 µM | 0.78 µM and 0.946 µM | 0.467 µM and 0.525 µM | 1.85 µM and 2.25 µM | 1.45 µM and 1.59 µM | 6.77 µM and 9.71 µM | 0.933 µM and 0.455 µM | 6.84 µM and 2.65 µM | 1.49 µM and 2.22 µM | 4.66 µM and 5.65 µM | 0.648 µM and 0.769 µM | 5.78 µM and 4.78 µM | 1.59 µM and 1.28 µM | 6.46 µM and 3.3 µM | 0.3 µM and 0.379 µM | 0.964 µM and 1.42 µM |
| CCCCCCCCCC/C=C/CC(=O)SCCNC(=O)CCNC(=O)[C@@H](O)C(C)(C)COP(=O)(O)OP(=O)(O)OCC1OC(n2cnc3c(N)ncnc32)C(O)C1OP(=O)(O)O (some centres undefined) | – | > 10 µM | – | > 10 µM | – | > 10 µM | – | > 10 µM | – | > 10 µM | – | > 10 µM | – | > 10 µM | – | > 10 µM | – | > 10 µM | – | > 10 µM |
| C=C(C=O)C1CCC2(C(=O)O)CCC3(C)C(CCC4C5(C)CCC(O)C(C)(C)C5CCC43C)C12 (centres undefined) | 1.69 µM | 3.23 µM | 2.68 µM | > 46.6 µM | 19.7 µM | 64.6 µM | 4.92 µM | 50.4 µM | 4.09 µM | 32.2 µM | 2.15 µM | 10.5 µM | 3.39 µM | 15.1 µM | 2.83 µM | 8.06 µM | 4.04 µM | 18.1 µM | 1.64 µM | 3.57 µM |
| O=C1NC(=Nc2ccccc2)S/C1=C\c1ccc2ncccc2c1 | > 25 µM | > 25 µM | > 25 µM | > 25 µM | > 25 µM | > 25 µM | > 25 µM | > 25 µM | > 25 µM | > 25 µM | > 10.3 µM | > 25 µM | – | > 7.02 µM | > 6.25 µM | > 25 µM | > 25 µM | > 25 µM | 13.4 µM | > 25 µM |
| COc1ccc2c(c1)CCC1C2CC[C@@]2(C)C1CC1=CC(COC(C)=O)C3C(=O)c4ccccc4C(=O)C3C12 (some centres undefined) | 47.9 µM | > 100 µM | > 100 µM | > 100 µM | 1.43 µM | 49.7 µM | 52.4 µM | > 100 µM | > 100 µM | > 100 µM | > 100 µM | > 100 µM | > 100 µM | > 100 µM | > 100 µM | > 100 µM | > 100 µM | > 100 µM | 47.3 µM | > 100 µM |
| CCN1CCN(c2ccc(Nc3cc(N(C)C(=O)Nc4c(Cl)c(OC)cc(OC)c4Cl)ncn3)cc2)CC1 | 2.18 µM | 13.6 µM | 1.9 µM | 6.01 µM | 2.28 µM | 27.3 µM | 1.99 µM | 4.15 µM | 3.07 µM | 22.9 µM | 2.41 µM | 28 µM | 11.4 µM | 25.9 µM | 3.11 µM | 7.99 µM | 2.5 µM | 12.5 µM | 1.66 µM | 3.14 µM |
| CNCCNc1c2c(c(NCCNC)c3c(CN(C)C)c[nH]c13)C(=O)c1ccccc1C2=O | 3.52 µM | 14.4 µM | 0.716 µM | 34.2 µM | 1.02 µM | 5.33 µM | 0.486 µM | 8.31 µM | 3.28 µM | 13.6 µM | 1.3 µM | 9.21 µM | 1.59 µM | 9.16 µM | 4.46 µM | 17.1 µM | 7.11 µM | 15.9 µM | 2.78 µM | 19.7 µM |
| CC(=O)OC1Oc2ccccc2-c2oc(=O)c(-c3cc(=O)oc4cc(O)ccc34)cc21 (centres undefined) | 23.1 µM | 79.2 µM | 9.38 µM | 40.8 µM | 14.1 µM | 40.9 µM | 24.9 µM | 81.5 µM | 19.8 µM | > 100 µM | 26.2 µM | 80.3 µM | 8.74 µM | 25.2 µM | 17.4 µM | 38.2 µM | 32.6 µM | > 100 µM | 18.8 µM | 39 µM |
| Cc1c2cccnc2c(C)c2c1c1cc(CO)ccc1n2C | 0.937 µM | 6.89 µM | 1.87 µM | 45.7 µM | 2.1 µM | 7.31 µM | 2.61 µM | 13.2 µM | 1.55 µM | 18.1 µM | 2.29 µM | 15.1 µM | 1.74 µM | 10.1 µM | 2.49 µM | 11.7 µM | 2.57 µM | 7.77 µM | 1.41 µM | 4.56 µM |
| Cc1ccc(C(SCC(N)C(=O)O)(c2ccccc2)c2ccc(C)cc2)cc1 (centres undefined) | 1.78 µM | 36.3 µM | 0.341 µM | > 75.7 µM | 1.19 µM | 22.4 µM | 0.468 µM | 16.1 µM | 0.433 µM | 44.2 µM | 0.257 µM | 23.9 µM | 0.167 µM | 2.15 µM | 0.129 µM | 2.47 µM | 11.2 µM | 30.9 µM | 0.119 µM | 17.3 µM |
| C/C1=C\CC[C@@]2(C)O[C@@H]2[C@H]2OC(=O)[C@@H](CN(C)C)[C@@H]2CC1 | 15.6 µM | 31.6 µM | 2.11 µM | 5.61 µM | 9.87 µM | 29.7 µM | 14.2 µM | 34.6 µM | 23.2 µM | 52.8 µM | 38.7 µM | > 100 µM | 32.8 µM | > 100 µM | 2.45 µM | 5.62 µM | 3.09 µM | 7.7 µM | 17.7 µM | 34.9 µM |
| COc1cc(Nc2cn[nH]c2-c2ccc(Cl)cc2)cc(OC)c1OC | 7.41 µM | > 76.8 µM | 3.42 µM | > 81.9 µM | 2.73 µM | 33.4 µM | 6.79 µM | > 90.3 µM | 14.3 µM | > 100 µM | 6.76 µM | > 70.5 µM | 2.18 µM | 11.3 µM | 4.48 µM | 24.7 µM | 9.13 µM | 62.9 µM | 3.61 µM | 18.9 µM |
